Measured values published in US20160310510A1, “MEDICINAL COSMETIC LIPOATROPHY” (priority 2009, published 2016).
Entries after “also recorded” stand apart in the source; their conditions may differ.

Experiments:
[1] = system: SQ adipose tissue of the face; assay: Facial MRI before and after triamcinolone injections, thickness of SQ adipose tissue; type: in vivo, human
Method: (§1) A series of cases of small localized fat deposits on the face were treated with local triancinolone from March 2005 to October 2008 at a private clinic in Porto Alegre, southern of Brazil. […] They received injections of triamcinolone (Kenalog®-40 Injection) diluted in anesthetic solution (0.02 g/mL Lidocaine plus 0.0004 g/mL Phenilephrine—Novocol®), in different doses and number of applications (up to 3 injections, once a month), according to patient's needs. […] Patients received injections in these fatty areas of the face, through a 0.3 cc BD Ultra Fine II syringe with short needle of minimum 7 or 8 mm long.
One patient was submitted to a facial Magnetic Resonance Imaging (MRI) exam before and after the triamcinolone injections, in order to show the results in terms of the changes in the thickness of subcutaneous tissue. Magnetic resonance imaging examination was performed with 1.5 Tesla Closed Bore Scanner (Magnetom Symphony Maestro Class, Siemens, Erlangen, Germany) with dedicated flexible coils. T1-weighted (600 ms/14 ms, Time Repetition/Time Echo) and T2-weighted (2500 ms/45 ms, TR/TE) turbo spin echo sequences were performed in coronal, axial and sagittal planes, with emphasis on the sagittal plane. An experienced radiologist evaluated the MRI images. The thickness of SQ adipose tissue was measured with Syngo software (Siemens, Erlangen, Germany) in millimetres (mm).

adipocytes = assay: Punch biopsies before and after single treatment, HE histology and morphometry of adipocytes; type: in vivo, human
Method: as §1
Another patient was submitted to 3 mm punch biopsies (one on the submental area and another on suprapubical area) before and after single treatment. Histological specimens of SQ tissue were stained with hematoxylin and eosin (HE stain) and […] was also performed in the histological images of before and after treatment samples.

[2] = cited from earlier work
[3] = system: small localized fat deposits on the face; assay: Retrospective series of 56 patients treated with local triamcinolone injections: clinical evaluation, satisfaction, side effects

For `CC1(C)O[C@@H]2C[C@H]3[C@@H]4CCC5=CC(=O)C=C[C@]5(C)[C@@]4(F)[C@@H](O)C[C@]3(C)[C@]2(C(=O)CO)O1` [triamcinolone, Triamcinolone acetonide], the “reduction of the thickness of the study area of facial fat (MRI)” value ([1]; after single session of injections, FIGS. 3 and 4) was 27.3%, the “thickness of the study area of facial fat after treatment (MRI)” value ([1]; after single session, before treatment 1.1 cm) was 0.8 cm and the “reduction of the fat thickness showed by MRI” value ([1]; mandibular area) was 37.5%. For the same compound, the “fat thickness after treatment (MRI)” value ([1]; mandibular area, before treatment 0.8 cm) was 0.5 cm, the “reduction of the fat thickness showed by MRI” value ([1]; submental area) was 33.3% and the “fat thickness after treatment (MRI)” value ([1]; submental area, before treatment 0.6 cm) was 0.4 cm. The “reduction in the volume of adipocytes in the sites of the injections (histological analysis)” value (adipocytes; before and after single treatment biopsies) was “about 30%”, the “average number of adipocytes observed in the optical field at the same magnification” value (adipocytes; suprapubical area biopsy, one month after a single injection, before treatment 4) was 7 adipocytes per field and the “average diameter of the adipocytes” value (adipocytes; suprapubical area biopsy, one month after a single injection, before treatment 190) was 153 pixels. The “average area of the adipocytes” value (adipocytes; suprapubical area biopsy, one month after a single injection, before treatment 31661) was 21705 pixels, the “concentration with greater risk of cutaneous atrophy” value ([2]; intralesional injections, Pariser and Murray 1963) was “above 5 mg/cm^3” and the safe dose ([2]; local injections) was “less than 0.15 mg/kg”. For the same compound, the “subject satisfaction with the results of the procedure” value ([3]; 29 subjects (51.78%) who returned for evaluation) was “very satisfied”, the “physician evaluation of clinical and cosmetic improvement” value ([3]; 29 subjects who returned for evaluation) was “good clinical and cosmetic improvement of facial contour” and the “serious / severe adverse events” value ([3]; Kenalog-40 diluted in lidocaine plus phenilephrine, up to 3 monthly subcutaneous injection sessions) was “No severe local or systemic side effects were observed; also recorded: did not presented serious adverse events”. The “local side effects observed” value ([3]; during and after the injections) was “pain and slight erythema; also recorded: hematomas in variable number and size” and the “number of patients with cosmetic local side effects” value ([3]; of the treated series) was “three”.
